Assay results from the SangsterLogP compilation.

Assay: method code SF, from DOI: 10.1080/10826079508010421
Conditions: pH 11.0

| Structure (SMILES) | logD |
| --- | --- |
| Cc1ccccc1OCC1CN=C(N)O1 (stereo not given) | 1.69 |
| COc1ccccc1OCC1CN=C(N)O1 (stereo not given) | 0.85 |
| NC1=NCC(COc2ccccc2)O1 (stereo not given) | 1.27 |
| NC1=NCC(COc2ccc([N+](=O)[O-])cc2)O1 (stereo not given) | 1.17 |
| COc1ccc(OCC2CN=C(N)O2)cc1 (stereo not given) | 1.26 |
| NC1=NCC(COc2ccccc2Cl)O1 (stereo not given) | 1.77 |

Next, values leading:

| logD | Structure (SMILES) |
| --- | --- |
| 1.24 | CCOc1ccccc1OCC1CN=C(N)O1 (stereo not given) |
| 2 | NC1=NCC(COc2ccc(Cl)cc2)O1 (stereo not given) |
| 1.79 | Cc1ccc(OCC2CN=C(N)O2)cc1 (stereo not given) |
| 0.6 | NC1=NCC(COc2ccc(N3CCOCC3)cc2)O1 (stereo not given) |
